Read-outs that look alike come from different tables or passages of the source.
Assays:
[1] = cited from earlier work
[2] = cited from earlier work; remark: listed apart in the source
[3] = test system: primary normal epidermal keratinocytes (NHEK); experiment: In vitro cell dose-response (resazurin viability) in 2-D culture, NHEK; type: cell-based, human; details: 72 h exposure
Method: (§1) The effects of raw TAK-242 powder on the viability of human representative human keratinocyte cell lines exposed to different concentrations were tested. HaCaT (a human transformed keratinocyte from histologically normal skin cell line) and NHEK (a primary normal epidermal keratinocyte cell line) were used as models of the human epidermis, which express keratinocytes in the stratum basale and then move up the final barrier layer of the skin, which is the stratum corneum. The HaCaT cells were grown in Dulbecco's modified Eagle's medium (DMEM), Optimized 1×, 10% (v/v) fetal bovine serum (FBS), and Pen-Strep (100 units/mL penicillin, 100 μg/mL) in a humidified incubator at 37° C. and 5% CO2. NHEK cells were grown NHEK- growth medium provided by MatTek (Ashland, MA, USA) in a humidified incubator at 37° C. and 5% CO2.
After confluence, HaCaT and NHEK cells were seeded in 96-black well plate at a concentration of 5,000 cells in 100 μL of media per well. After 48 hours, cells were then incubated for 48 h to allow attachment to the surface of the plates. Cells were then exposed to different concentrations of TAK-242. […] Fluorescence intensity of resofurin was detected at 544 nm (excitation) and 590 nm (emission) using the Molecular Devices® SpectraMax® M3 Multi-Mode Microplate Reader (Sunnyvale, CA, USA). The relative viability of the cells was calculated as followed by equation 1: […]

[4] = test system: human transformed keratinocytes (HaCaT); experiment: In vitro cell dose-response (resazurin viability) in 2-D culture, HaCaT; type: cell-based; details: 72 h exposure
Method: as §1
After confluence, HaCaT and NHEK cells were seeded in 96-black well plate at a concentration of 5,000 cells in 100 μL of media per well. After 48 hours, cells were then incubated for 48 h to allow attachment to the surface of the plates. Cells were then exposed to different concentrations of TAK-242. The drug solutions were prepared by dissolving raw TAK-242 powder in 5% v/v DMSO and DMEM media to make a solution at 1×. A volume of 100 μL of drug solution was added to each well. After 72 h of exposure and incubation at 37° C. and 5% CO2, 20 μL of 20 μM resazurin sodium salt were added to each well and incubated for 4 h. Fluorescence intensity of resofurin was detected at 544 nm (excitation) and 590 nm (emission) using the Molecular Devices® SpectraMax® M3 Multi-Mode Microplate Reader (Sunnyvale, CA, USA). The relative viability of the cells was calculated as followed by equation 1: […]

[5] = In vitro oil-water partitioning coefficient (Log-P), 1-octanol/PBS; type: physicochemical; details: for logP: 1-octanol/PBS; for partition coefficient (Log-P): range over pH 6.5, 7.1, 8.8
Method: TAK242 raw powder was weighed out (0.003 g) and placed in 2 dram ambered colored glass vials containing equal volumes (1.5 mL) of 1-octanol and PBS (1×, pH=7.4). Various solutions were made, and pH was adjusted and maintained at 6.5, 7.1, 8.8, adjustments were made using 0.1 M HCl solution and 0.1 M NaOH solution. […] The vials were rotated using a Barnstead/Thermolyne Labquake shaker (Dubuque, IA, USA) for 24 hours and then left undisturbed in a vertical position for an additional 24 hours for phase separation between the aqueous and non-aqueous layers. A sample of each layer was carefully withdrawn and then analyzed by a validated HPLC method as describe in the HPLC analysis section under methods.

[6] = cited from earlier work; remark: listed apart in the source
[7] = test system: UV-induced AP-1 activation; details: acetone solution of resatorvid, mouse epidermis; cited from earlier work
[8] = UV-Vis spectra of resatorvid solution in PEG400 on storage; type: physicochemical; details: 0.1% w/v in PEG400, 4 days at 25° C.
Description: The solvents that were used were PEG400, EtOH 140 proof, PBS pH 7.4, Acetonitrile, NS, and MeOH. PEG600 was not used as it was too thick. At a concentration of 0.1% w/v it was observed that resatorvid was soluble in PEG400, acetonitrile and EtOH 140 proof and HPLC grade MeOH. 0.01% w/v solutions were also made for some samples to show an acceptable UV-Vis spectra. Resatorvid was not soluble in NS or PBS pH 7.4.
A Molecular Devices® SpectraMax® M3 Multi-Mode Microplate Reader (Sunnyvale, CA, USA) was used to perform UV/Vis spectroscopy. The wavelength range was 190 through 290 nm. A 0.1% w/v solution of TAK-242 in HPLC grade methanol, PEG-400, HPLC grade ethanol, HPLC grade acetonitrile, PBS (pH=7.4) and 0.85% w/v normal saline were made and analyzed under UV visible spectroscopy on a 96-wellplate black clear bottom.

[9] = Solubility of resatorvid in solvents (sonication, visual observation); type: physicochemical
Method: To determine solubility of resatorvid in a liquid formulation, a variety of solvents were tested: phosphate buffered saline, NS, ethanol, and PEG400, all with resatorvid at a concentration of 0.1% w/v and the solutions were sonicated for 1 hour at room temperature.
In addition, a solution of 5% w/v resatorvid in EtOH 140 proof was prepared (1 mL of ETOH and 50 mg of resatorvid). The solution was not translucent and became opaque/cloudy and there was still drug undissolved floating around.
Solutions were made with w/v TAK242+PEG600 and 5% w/v TAK242+100% Acetone. All three solutions were sonicated at room temperature for 1 hour. […] As the solution began to adjust to ambient temperature it started to solidify into a white thick substance almost like lard.
Further experiments were conducted using glycerol as the solvent. 0.0504 g of TAK-242 was weighed out to make a 5.04% w/v solution in 1 mL of glycerol, USP grade. […]. The solution was then sonicated for 60 minutes at 37° C. […] Images were taken at each to document the outcome.
A 5% w/v solution of resatorvid (50mg) and PEG 400 USP (1 mL) was prepared.
(§2) Seven platforms were analyzed for compatibility with TAK-242. The platforms were DermaBASE cream (cream and lotion), PENcream (cream), PEG-400 solution, PG solution, 1% w/v Carbomer 934P resin gel at pH˜7, 2% w/v Sodium hyaluronate gel/serum and 20% w/v Pluronic F127 gel. Solubility of TAK-242 was determined at concentrations ranging from 0.1-5% w/v using PBS (pH=7.41), 0.9% normal saline (NS), HPLC grade ethanol, PEG-400 and PG as solvents. The following step was to test if TAK-242 could be directly incorporated into the platforms mentioned above via non-sterile compounding to determine if the drug would need to be pre-dissolved before incorporation. Determination of how much volume of PEG-400 or PG could be incorporated into the creams and gels without losing consistency while maintaining homogeneity was examined; 1 g of base (cream or gel) was weighed out and was compounded with PEG-400 or PG (500 μL-1000 μL). Drug was then dissolved in appropriate determined volume of compatible solvent and sonicated for 60 minutes, then it was prepared via non-sterile compounding technique and formulations were examined for physical appearance (consistency, homogeneity, visible precipitation, phase separation, compatibility). The only formulation that was different was the Pluronic F127 as everything was mixed in as a liquid at 4° C. and the solution would then solidify at room temperature […] to create the gel which was then mixed thoroughly until homogenous.

[10] = Direct incorporation of resatorvid powder into cream bases (solubility/compatibility); type: physicochemical; details: room temperature 30 minutes to 1 hour
Method: The solubility of the drug as powder was tested on both Dermabase cream as well as PENcream. […] It was a clear indication that the drug would have to be pre-dissolved in a solution before incorporating into the creams.
A variety of cream/lotion formulations were prepared. One gram of Dermabase cream and 0.1 gram of resatorvid were compounded together. […] One gram of PENcream was compounded with 0.1 grams of resatorvid. After compounding the mixture sat for 1 hour at room temp. […] PEG 400 USP and PEG 600 USP at volumes of 0.5 mL, 1 mL and 2 mL were used with 1 gram of cream base. […] PEG 600 USP changed the cream consistency to a lotion for each cream at added volumes 0.5 mL, 1 mL and 2 mL.
as §2

p-p38 signal in EpiDerms = experiment: p-p38 signal after topical resatorvid with or without solar simulated light; type: cell-based, human; details: constitutive or UV-induced
[11] = series of increasing concentrations

## CCOC(=O)C1=CCCC[C@H]1S(=O)(=O)Nc1ccc(F)cc1Cl [Resatorvid]
[1]
  reported Log P: 2.53
[2]
  experimentally determined pKa reported: 8.0-8.1
[3]; all concentrations
  % cell viability: ~100%
[3]; [11]
  toxicity: did not show any significant toxicity
[4]; 1000 μM
  % cell viability: ~70%
[4]; all concentrations except 1000 μM
  % cell viability: ~100%
[4]; [11]
  toxicity: did not show any significant toxicity
[5]; as quoted, conditions not stated, read-out: log P
  logP: 1.54
[5]; pH 6.5, At 35° C., pH = 6.5, read-out: Experimental (Log P) Average ± SD
  logP: 1.65 ± 0.029
[5]; pH 6.5, At Room temperature/ambient temperature, pH = 6.5, read-out: Experimental (Log P) Average ± SD
  logP: 1.58 ± 0.019
[5]; pH 7.1, At 35° C., pH = 7.1, read-out: Experimental (Log P) Avg. Log-P ± SD
  logP: 1.68 ± 0.013
[5]; pH 7.1, At Room temperature/ambient temperature, pH = 7.1, read-out: Experimental (Log P) Avg. Log-P ± SD
  logP: 1.54 ± 0.149
[5]; pH 8.8, At 35° C., pH = 8.8, read-out: Experimental (Log P) Avg. Log-P ± SD
  logP: 0.94 ± 0.023
[5]; pH 8.8, At Room temperature/ambient temperature, pH = 8.8, read-out: Experimental (Log P) Avg. Log-P ± SD
  logP: 0.88 ± 0.06
[5]; at 35° C.
  partition coefficient (Log-P): 0.94-1.68
[5]; at 37° C.
  partition coefficient (Log-P): 0.88-1.58
[6]; in DMSO
  reported solubility: 10 mg/mL
[6]; in EtOH
  reported solubility: 20 mg/mL
[6]; in H2O
  reported solubility: sparingly soluble
[7]
  UV-induced AP-1 activation: blocked
[8]
  stability of drug in solution (UV-VIS spectra): no changes in the drug
[9]; 0.1% w/v in EtOH 140 proof
  solubility: soluble
[9]; 0.1% w/v in EtOH 140 proof, listed as TAK-242
  solubility: completely dissolved
[9]; 0.1% w/v in HPLC grade MeOH
  solubility: soluble
[9]; 0.1% w/v in NS (normal saline)
  solubility: not soluble
[9]; 0.1% w/v in NS (normal saline), listed as TAK-242
  solubility: failed to dissolve
[9]; 0.1% w/v in PBS pH 7.4
  solubility: not soluble
[9]; 0.1% w/v in PBS pH 7.4, listed as TAK-242
  solubility: failed to dissolve
[9]; 0.1% w/v in PEG400
  solubility: soluble
[9]; 0.1% w/v in acetonitrile
  solubility: soluble
[9]; 5% w/v in 100% acetone, sonicated at room temperature 1 hour
  solubility: dissolved the drug completely
[9]; 5% w/v in EtOH 140 proof
  solubility: only partially dissolved
[9]; 5% w/v in PEG 400 USP
  solubility: no signs of undissolved drug
[9]; glycerol USP, 5.04%, 2.5%, 1.25% and 0.625% w/v, sonicated 60 minutes at 37° C.
  solubility: did not dissolve
[9]; w/v in PEG600 (concentration not given), sonicated at room temperature 1 hour
  solubility: dissolved the drug completely
[10]; Dermabase cream
  solubility of drug powder in cream: unable to dissolve in the cream
[10]; Dermabase cream, listed as Resatorvid (TAK-242)
  solubility of drug powder in cream: undissolved and incompatible with creams
[10]; PENcream
  solubility of drug powder in cream: undissolved drug
[10]; PENcream, listed as Resatorvid (TAK-242)
  solubility of drug powder in cream: undissolved and incompatible with creams
p-p38 signal in EpiDerms
  p-p38 signal: potently blocked
